From patent US20230381142A1, “ANTILEISHMANIAL COMPOUNDS, COMPOSITIONS AND USE THEREOF” (TRUSTEES OF BOSTON UNIVERSITY, priority 2022, published 2023)
Read-outs that look alike come from different tables or passages of the source.

Key:
[1] = tested on: L. donovani intracellular amastigotes in B10R cells; assay: UCSD L. donovani infection assay (Assay Conditions D); assay type: cell-based; settings: B10R cells; for L. donovani amastigotes EC75 (B10R cells): footnote d; for EC50: Leishmania donovani, values marked d, read-out: L. donovani amastigotes EC50 (B10R cells)
Description: (§1) Assay Conditions D: B10R cells (CVCL_0155) were seeded at 300 cells/well, and L. donovani WT promastigotes in stationary phase (7th day after passage) were added at 6,000 parasites/well (ratio of 20 parasites/cell). Both cells and parasites were seeded in DMEM High-Glucose medium (Gibco, cat. no. 11995065) containing 5% Fetal Bovine Serum (Sigma-Aldrich, cat. no. F2442) and 1% Penicillin-Streptomycin (Gibco, cat. no. 15140122). Cells and parasites were incubated in the presence of the compounds for 72 h at 37° C. and 5% C02. Plates were then fixed with 4% formaldehyde solution for at least 1 h, then washed with 1×PBS and stained with 5 μg/mL DAPI. Plates were read using an ImageXpress microscope (Molecular Devices) and analyzed by MetaXpress software (Molecular Devices) using a custom module optimized for this assay. […] Compounds were tested in a 10-point 2-fold serial dilution in 3 technical replicates, and 2 biological replicates. After 72 h, plates were fixed and stained with DAPI as described above. Images were acquired on an ImageXpress microscope, and analyzed using the MetaXpress custom module.
as §1, with “Compounds were obtained as 0.2 μmoles of dried film for primary single point screening. Each compound was diluted in DMSO to 10 μM final testing concentration. These compounds were tested in 2 biological replicates. The compounds were pre-spotted onto 384-well assay plates in single concentration.” for “Assay Conditions D:”, “CO2.” for “C02.”, “module. The DRCs were plotted, half-effective concentration (EC50) and half-cytotoxic concentration (CC50) were calculated using GraphPad Prism Software, version 6.05 (GraphPad Software, San Diego, CA).” for “module.”

[2] = tested on: host THP-1 macrophages; assay: GSK inMac assay, host cell toxicity readout (LD MAC); assay type: cell-based, human; settings: for THP-1 Host Cell CC50: host THP-1 cells
Summary of the method: (§2)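 Intramacrophage L. donovani assay in THP-1 macrophages; host toxicity taken from host cell number per well, giving MAC EC50. Run alongside amastigote-per-cell and infected-cell readouts in the same wells.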

[3] = tested on: L. donovani intracellular amastigotes infecting THP-1 macrophages; assay: GSK intramacrophage L. donovani assay (LD AMMAC, inMac; Assay Conditions C); assay type: cell-based; settings: Leishmania donovani
Summary of the method: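 L. donovani amastigotes within THP-1 macrophages; EC50 based on average intracellular amastigotes per infected cell (AMMAC). Infected-cell percentage (INFCELL) and host-cell number (MAC) also read, the latter as toxicity output.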

[4] = Property forecast index (PFI = ChromLogD7.4 + aromatic rings); assay type: physicochemical
Description: At the outset of the project, compound 1 was evaluated against GSK's established criteria for antileishmanial compound advancement (Table 2). Some of these assessments were performed on racemic 1, while chiral separation was also pursued of the 1 racemate to determine the active enantiomer. […] Based on this promising profile, it progressed into medicinal chemistry optimization to better understand structure-activity relationships (SAR) toward improved potency, as well as structure-property relationships (SPR) with an eye toward reducing PFI and plasma protein binding.

[5] = GSK inMac assay, host cell toxicity readout (LD MAC); assay type: cell-based, human; settings: human
Summary of the method: as §2

[6] = footnote c, read-out: THP-1 Host Cell CC50
[7] = values marked c: THP-1 cells, read-out: L. donovani amastigotes EC50 (μM, THP-1 or B10R cells)
[8] = THP-1 cells, values marked c, read-out: L. donovani amastigotes EC50 (THP-1 cells)

Row | EC50 [3, 8] [µM] | SMILES | CC50 [5, 6] [µM] | other results
1 |  | CC(C)Cc1n[nH]c2c1C(c1ccc(F)c(F)c1)N(c1cncc(F)c1)C2=O (stereo not shown) [BUCMD00701] |  | L. donovani amastigotes EC75 (μM, B10R cells) [1]: >5 µM; THP-1 Host Cell CC50 [2]: >10 µM
2 |  | CCCCc1n[nH]c2c1C(c1ccc(F)cc1)N(c1ccc(OC)cc1)C2=O (stereo not shown) [Compound 11] |  | EC50 ([2]; Homo sapiens, THP-1, cytotoxicity against host THP-1 macrophages): 2.5 µM; EC50 ([3]; THP-1, read-out: potency (antileishmanial, text to Table 3)): ~0.3 µM; EC50 ([3]; growth inhibition of L. donovani intracellular amastigotes infecting THP-1 macrophages, read-out: LD AMMAC EC50): 0.1 µM; PFI [4]: 8.4
3 |  | CCn1cc(N2C(=O)c3[nH]nc(CC(C)C)c3C2c2ccccc2C(F)(F)F)cn1 (stereo not shown) [BUCMD00671] |  | L. donovani amastigotes EC75 (μM, B10R cells) [1]: >5 µM; THP-1 Host Cell CC50 [2]: >10 µM
4 |  | CC(C)Cc1n[nH]c2c1C(c1ccccc1Cl)N(c1ccc3ncnn3c1)C2=O (stereo not shown) [CMLD010921] | > 20 | L. donovani amastigotes EC75 (B10R cells) [1]: 0.6 µM; EC50 [1]: 0.6 µM
5 |  | COc1ncc(N2C(=O)c3[nH]nc(CC(C)C)c3C2c2ccc(F)cc2)cc1C (stereo not shown) [CMLD011555] |  | L. donovani amastigotes EC75 (μM, B10R cells) [1]: 1.7 µM; CC50 ([5]; host THP-1 cells): 20 µM; EC50 [3, 7]: 10 µM
6 |  | CC(C)Cc1n[nH]c2c1C(c1ccc(F)cc1)N(c1ccc(N3CCCC3=O)cc1)C2=O (stereo not shown) [CMLD011560] |  | L. donovani amastigotes EC75 (μM, B10R cells) [1]: 1.0 µM; CC50 ([5]; host THP-1 cells): 20 µM; EC50 [3, 7]: 4 µM
7 | 15.9 | CC(C)Cc1n[nH]c2c1C(c1ccc(F)cc1)N(CCN1CCCC1)C2=O (stereo not shown) [CMLD011072] | > 50 | L. donovani amastigotes EC75 (B10R cells) [1]: >10 µM
8 |  | COc1ccccc1C1c2c(CC(C)C)n[nH]c2C(=O)N1c1ccc2c(c1)OCO2 (stereo not shown) [CMLD011546] | > 20 | L. donovani amastigotes EC75 (B10R cells) [1]: 0.3 µM; EC50 [1]: 0.3 µM
9 | 1.6 | C#CCn1nc(CC(C)C)c2c1C(=O)N(c1ccc(OC)cc1)C2c1ccc(F)cc1 (stereo not shown) [CMLD010987] | 20 | L. donovani amastigotes EC75 (B10R cells) [1]: 4.0 µM
10 |  | C#CCn1nc2c(c1CC(C)C)C(c1ccc(F)cc1)N(c1ccc(OC)cc1)C2=O (stereo not shown) [CMLD010986] |  | L. donovani amastigotes EC75 (μM, B10R cells) [1]: >10 µM; CC50 ([5]; host THP-1 cells): 25.1 µM; EC50 [3, 7]: 3.2 µM
11 | 5 | CC(C)Cc1n[nH]c2c1C(c1ccc(F)cc1)N(c1ccc3ncnn3c1)C2=O (stereo not shown) [CMLD010888] | > 50 | L. donovani amastigotes EC75 (B10R cells) [1]: 2.3 µM
12 | 2.5 | CC(C)Cc1n[nH]c2c1C(c1ccc(F)cc1)N(c1ccc(-n3ccnc3)cc1)C2=O (stereo not shown) [BUCMD00815] | > 50 | 
13 | 5 | COc1cccc(N2C(=O)c3[nH]nc(CC(C)C)c3C2c2cccc(Cl)c2)c1 (stereo not shown) [CMLD011133] | 25.1 | 
14 |  | COc1ccc(N2C(=O)c3[nH]nc(CC(C)C)c3C2C2CCCCC2)cc1F (stereo not shown) [CMLD011090] |  | CC50 ([5]; host THP-1 cells): ≥ 50.1 µM; EC50 [3, 7]: 5 µM
15 |  | COc1cc(N2C(=O)c3[nH]nc(CC(C)C)c3C2c2ccc(F)cc2)ccc1F (stereo not shown) [CMLD011073] |  | CC50 ([5]; host THP-1 cells): 15.8 µM; EC50 [3, 7]: 20 µM
16 | 2.5 | C=CCn1nc(CC(C)C)c2c1C(=O)N(c1ccc(OC)cc1)C2c1ccc(F)cc1 (stereo not shown) [CMLD010985] | 31.6 | 
17 | 25.1 | COc1ccc(N2C(=O)c3[nH]nc(CC(C)C)c3C2c2cccnc2OC)cc1 (stereo not shown) [CMLD0011576] | 10 | 
18 | 25.1 | CC(C)Cc1n[nH]c2c1C(c1ccc(F)cc1)N(c1cccc(C#N)c1)C2=O (stereo not shown) [BUCMD00806] | > 50 | 

Row | EC50 [3, 8] [µM] | SMILES | CC50 [5, 6] [µM] | other results
19 |  | COC(=O)c1ccc(N2C(=O)c3[nH]nc(CC(C)C)c3C2c2cccc(C(F)(F)F)c2)cc1 (stereo not shown) [CMLD011080] |  | CC50 ([5]; host THP-1 cells): 39.8 µM; EC50 [3, 7]: 10 µM
20 | 0.5 | COc1ccc(N2C(=O)c3[nH]nc(CC(C)C)c3C2c2ccccc2Br)cc1 (stereo not shown) [CMLD010894] | 25.1 | 
21 |  | CC(=O)OCC(CO)N1C(=O)c2[nH]nc(CC(C)C)c2C1c1ccc(F)cc1 (stereo not shown) [CMLD011037] |  | CC50 ([5]; host THP-1 cells): ≥ 50.1 µM; EC50 [3, 7]: ≥ 50.1 µM
22 | 10 | COc1ccc(N2C(=O)c3[nH]nc(CC(C)C)c3C2c2ccsc2)cn1 (stereo not shown) [CMLD011137] | 25.1 | 
23 | 25.1 | CC(C)Cc1n[nH]c2c1C(c1ccc(F)cc1)N(c1cccnc1)C2=O (stereo not shown) [CMLD011098] | > 50 | 
24 | 10 | CC(C)Cc1n[nH]c2c1C(c1ccc(F)cc1)N(c1ccc(C(C)(C)C)cc1)C2=O (stereo not shown) [BUCMD00816] | > 50 | 
25 | 31.6 | COc1ccc(N2C(=O)c3[nH]nc(CC(C)C)c3C2c2ccccn2)cc1 (stereo not shown) [CMLD011125] | > 50 | 
26 |  | CC(C)Cc1n[nH]c2c1C(c1ccsc1)N(c1ccc3c(c1)OCO3)C2=O (stereo not shown) [CMLD011136] |  | L. donovani amastigotes EC75 (μM, B10R cells) [1]: 3.6 µM; CC50 ([5]; host THP-1 cells): ≥ 50.1 µM; EC50 [3, 7]: 5 µM
27 |  | CC(C)Cc1n[nH]c2c1C(C1CCCCC1)N(c1ccc(Br)cc1)C2=O (stereo not shown) [CMLD011087] |  | CC50 ([5]; host THP-1 cells): 7.9 µM; EC50 [3, 7]: 6.3 µM
28 |  | COc1ccc(N2C(=O)c3[nH]nc(CC(C)C)c3C2c2ccccc2Br)cn1 (stereo not shown) [CMLD012218] | > 20 | L. donovani amastigotes EC75 (B10R cells) [1]: 0.4 µM; EC50 [1]: 1 µM
29 | 5 | COc1cc(N2C(=O)c3[nH]nc(CC(C)C)c3C2c2ccccc2Cl)cc(OC)c1OC (stereo not shown) [CMLD011116] | 6.3 | 
30 | 4 | CCc1ccc(N2C(=O)c3[nH]nc(CC(C)C)c3C2c2ccc(F)cc2)cc1 (stereo not shown) [CMLD010899] | 20 | 
31 | 1.3 | Cc1cc(F)ccc1C1c2c(CC(C)C)n[nH]c2C(=O)N1c1ccc(-n2ccnc2)cc1 (stereo not shown) [CMLD010926] | 25.1 | 
32 | 12.6 | CC(C)Cc1n[nH]c2c1C(c1ccc(F)cc1)N(c1ccc(C#N)cc1)C2=O (stereo not shown) [BUCMD00807] | 25.1 | 
33 | 4 | COc1ccc(N2C(=O)c3[nH]nc(-c4ccc(CC(C)C)cc4)c3C2c2ccc(F)cc2)cc1 (stereo not shown) [CMLD010979] | 7.9 | 
34 | 20 | COc1ccc(N2C(=O)c3[nH]nc(CC(C)C)c3C2c2ccc(F)cc2)c(OC)c1 (stereo not shown) [CMLD010992] | 31.6 | 
35 | > 50 | COc1ccc(N2C(=O)c3[nH]nc(CC(C)C)c3C2c2ccc(OC)nc2)cc1 (stereo not shown) [CMLD011027] | > 50 | 
